Results taken from the NIST ThermoML archive (doi:10.1016/j.jct.2016.02.016).

Key:
[1] = refractive index (Na D-line) (dimensionless); xn = mol fraction of the nth substance listed; settings: 100 kPa, Liquid, Standard Abbe refractometry
[2] = xn = mol fraction of the nth substance listed; settings: 100 kPa, Liquid; for speed of sound: Frequency=3 MHz, Sing-around technique in a fixed-path interferometer; for mass density: Vibrating tube method

CCCC(C)=O [pentan-2-one] + CN(C)C=O
Settings | mass density, [2] [kg/m3] | refractive index, [1] | speed of sound, [2] [m/s]
293.15 K, x2 = 0 | 806.83 | 1.39026 | 1232.4
293.15 K, x2 = 0.056 | – | 1.39208 | –
293.15 K, x2 = 0.1141 | 819.616 | 1.39408 | 1254.3
293.15 K, x2 = 0.1516 | 823.961 | – | 1261.7
293.15 K, x2 = 0.1531 | – | 1.39541 | –
293.15 K, x2 = 0.2063 | 830.491 | 1.39735 | 1273
293.15 K, x2 = 0.2588 | 836.933 | 1.39918 | 1284
293.15 K, x2 = 0.3089 | 843.115 | 1.40106 | 1294.7
293.15 K, x2 = 0.3594 | 849.625 | 1.40295 | 1303.2
293.15 K, x2 = 0.4006 | 855.077 | 1.40453 | 1315.3
293.15 K, x2 = 0.4488 | 861.489 | 1.40643 | 1326.3
293.15 K, x2 = 0.4999 | 868.584 | 1.40845 | 1338.5
293.15 K, x2 = 0.5466 | 875.212 | 1.41036 | 1350
293.15 K, x2 = 0.5976 | – | 1.41245 | –
293.15 K, x2 = 0.5987 | 882.775 | – | 1363.1
293.15 K, x2 = 0.6581 | 891.66 | 1.41495 | 1378.4
293.15 K, x2 = 0.6992 | – | 1.41668 | –
293.15 K, x2 = 0.7528 | 906.494 | 1.41906 | 1404.2
293.15 K, x2 = 0.8029 | 914.576 | 1.42129 | 1418.1
293.15 K, x2 = 0.8461 | 921.84 | 1.42325 | 1430.7
293.15 K, x2 = 0.9017 | 931.277 | 1.42583 | 1446.8
293.15 K, x2 = 0.9496 | 939.704 | 1.42811 | 1460.9
298.15 K, x2 = 0 | 801.99 | 1.38793 | 1211.9
298.15 K, x2 = 0.0568 | 808.267 | 1.38979 | 1222.8
298.15 K, x2 = 0.1 | 813.221 | 1.39128 | 1231.3
298.15 K, x2 = 0.1526 | 819.25 | 1.3931 | 1241.7
298.15 K, x2 = 0.1895 | 823.621 | 1.39442 | 1249.2
298.15 K, x2 = 0.2545 | 831.549 | 1.3967 | 1262.9
298.15 K, x2 = 0.3298 | 841.051 | 1.39955 | 1279.3
298.15 K, x2 = 0.3502 | 843.666 | 1.40029 | 1283.9
298.15 K, x2 = 0.3956 | 849.557 | 1.40203 | 1294
298.15 K, x2 = 0.4567 | 857.796 | 1.40441 | 1308.5
298.15 K, x2 = 0.5084 | 865.012 | 1.4065 | 1320.8
298.15 K, x2 = 0.557 | 871.899 | 1.40855 | 1332.9
298.15 K, x2 = 0.6022 | 878.552 | 1.41039 | 1344.4
298.15 K, x2 = 0.6448 | 884.967 | 1.41217 | 1355.5
298.15 K, x2 = 0.7117 | 895.208 | 1.41498 | 1373.4
298.15 K, x2 = 0.7504 | 901.333 | – | 1384
298.15 K, x2 = 0.7511 | – | 1.41672 | –
298.15 K, x2 = 0.8027 | 909.784 | 1.41905 | 1398.7
298.15 K, x2 = 0.849 | 917.57 | 1.42117 | 1412.1
298.15 K, x2 = 0.9019 | 926.592 | 1.42364 | 1427.6
298.15 K, x2 = 0.9429 | 933.872 | 1.42557 | 1440.1
303.15 K, x2 = 0 | 796.73 | 1.38523 | 1191.7
303.15 K, x2 = 0.0581 | 803.204 | – | 1203
303.15 K, x2 = 0.0681 | – | 1.38748 | –
303.15 K, x2 = 0.1088 | 808.974 | – | 1212.9
303.15 K, x2 = 0.113 | – | 1.38906 | –
303.15 K, x2 = 0.1576 | – | 1.39062 | –
303.15 K, x2 = 0.16 | 815.007 | – | 1223.3
303.15 K, x2 = 0.1979 | – | 1.39212 | –
303.15 K, x2 = 0.2044 | 820.314 | – | 1232.5
303.15 K, x2 = 0.2343 | – | 1.39347 | –
303.15 K, x2 = 0.262 | 827.319 | – | 1244.6
303.15 K, x2 = 0.3046 | 832.689 | – | 1253.9
303.15 K, x2 = 0.3128 | – | 1.39635 | –
303.15 K, x2 = 0.3506 | 838.634 | – | 1264.1
303.15 K, x2 = 0.3603 | – | 1.3982 | –
303.15 K, x2 = 0.4014 | 845.319 | – | 1275.7
303.15 K, x2 = 0.4156 | – | 1.40034 | –
303.15 K, x2 = 0.4485 | – | 1.40167 | –
303.15 K, x2 = 0.482 | 856.31 | – | 1294.7
303.15 K, x2 = 0.4954 | – | 1.40355 | –
303.15 K, x2 = 0.5006 | 858.884 | – | 1299.1
303.15 K, x2 = 0.5407 | 864.591 | – | 1309
303.15 K, x2 = 0.5505 | – | 1.4058 | –
303.15 K, x2 = 0.5986 | – | 1.40783 | –
303.15 K, x2 = 0.5989 | 873.078 | – | 1323.9
303.15 K, x2 = 0.6407 | – | 1.40954 | –
303.15 K, x2 = 0.6467 | 880.175 | – | 1336.3
303.15 K, x2 = 0.6949 | 887.598 | – | 1349.2
303.15 K, x2 = 0.6952 | – | 1.41187 | –
303.15 K, x2 = 0.7401 | – | 1.41378 | –
303.15 K, x2 = 0.7518 | 896.616 | – | 1364.8
303.15 K, x2 = 0.7992 | – | 1.41643 | –
303.15 K, x2 = 0.8007 | 904.558 | – | 1378.6
303.15 K, x2 = 0.8527 | 913.274 | – | 1393.6
303.15 K, x2 = 0.8559 | – | 1.41908 | –
303.15 K, x2 = 0.8991 | 921.307 | – | 1407.5
303.15 K, x2 = 0.8994 | – | 1.42109 | –
303.15 K, x2 = 0.9411 | – | 1.42312 | –
303.15 K, x2 = 0.9485 | 929.946 | – | 1422.2
